The values that follow come from article PMC9918900, “New Succinimide–Thiazolidinedione Hybrids as Multitarget Antidiabetic Agents: Design, Synthesis, Bioevaluation, and Molecular Modelling Studies” (Molecules, 2023).

The target of one experiment is α-glucosidase. The experiment in a line: in vitro α-glucosidase inhibitory activity. Type of experiment: biochemical, Homo sapiens. On the procedure:
The inhibitory analyses for α-glucosidase were carried out in accordance with the protocols reported in the literature; the inhibitory activities of the synthesized hybrids were calculated utilizing screening assay tools.

For the next experiment, the target named is T1, α-amylase (Homo sapiens, UniProt P04746).
T1 sequence (P04746 16-511): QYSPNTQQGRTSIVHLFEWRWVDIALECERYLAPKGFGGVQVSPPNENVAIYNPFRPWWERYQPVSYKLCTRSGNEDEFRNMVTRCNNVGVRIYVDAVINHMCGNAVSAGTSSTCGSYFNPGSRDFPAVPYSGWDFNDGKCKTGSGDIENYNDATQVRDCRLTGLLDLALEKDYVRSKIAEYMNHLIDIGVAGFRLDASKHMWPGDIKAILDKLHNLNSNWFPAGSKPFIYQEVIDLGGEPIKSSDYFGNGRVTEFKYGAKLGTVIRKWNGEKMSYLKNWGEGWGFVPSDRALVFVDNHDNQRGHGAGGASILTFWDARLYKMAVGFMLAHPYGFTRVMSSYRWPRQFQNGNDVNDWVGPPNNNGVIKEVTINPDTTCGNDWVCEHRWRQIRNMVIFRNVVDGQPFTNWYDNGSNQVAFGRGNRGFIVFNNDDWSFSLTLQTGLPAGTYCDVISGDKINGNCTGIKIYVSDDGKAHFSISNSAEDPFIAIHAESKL
The experiment in a line: in vitro α-amylase inhibitory activity. Type of experiment: biochemical. As for the experimental part: The test samples were added in alpha-amylase solution. The enzyme solution was prepared with enzyme and buffer solution. The mixture of the samples and enzyme was then incubated. Then, starch and dinitrosalicylic acid solution was added. The same was performed for both test compounds and the standard drug. […] The percent alpha-amylase inhibition activity and its IC50 values were calculated and confirmed as per the previous procedure.

For the next experiment, the target named is T2, PTP1B (Homo sapiens, UniProt P18031).
T2 sequence (P18031 1-435): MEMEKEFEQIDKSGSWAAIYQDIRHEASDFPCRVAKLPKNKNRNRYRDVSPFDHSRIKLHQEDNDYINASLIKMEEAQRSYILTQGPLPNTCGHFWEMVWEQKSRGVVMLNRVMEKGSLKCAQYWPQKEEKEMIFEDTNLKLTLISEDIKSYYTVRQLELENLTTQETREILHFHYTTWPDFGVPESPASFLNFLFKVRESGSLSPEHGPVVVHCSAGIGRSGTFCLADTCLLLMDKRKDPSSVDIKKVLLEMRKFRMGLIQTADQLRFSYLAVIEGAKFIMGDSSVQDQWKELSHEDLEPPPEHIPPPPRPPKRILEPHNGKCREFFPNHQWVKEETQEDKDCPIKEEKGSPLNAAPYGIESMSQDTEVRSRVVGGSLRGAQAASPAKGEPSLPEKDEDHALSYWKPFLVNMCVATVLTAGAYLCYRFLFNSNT
The experiment in a line: PTP1B assay (pNPP substrate). Type of experiment: biochemical. As for the experimental part: The aforementioned newly synthesize succinimides and thiazolidinedione hybrids were tested against the PTP1B enzyme to determine their ability to inhibit the negative regulation of insulin as well as leptin signaling. The PTP1B test was performed with a small modification to the method described in the publications. The enzyme efficiency was evaluated using […] (pNPP) as a substrate. For the buffer solution, 0.5 millimolar (mM) of ethylene diamine tetraacetic acid (EDTA), 1 mM of mercaptoethanol, 0.55 mM of dithiothreitol (DTT), and 12.49 mM of TRIS hydrochloride (ph = 7.4) were used. The experiment was carried out by mixing 10.0 μL of the test compound solutions with 20.0 μL of the enzyme (1 μg/mL), subsequently injecting 40.0 μL of 4.0 mM 4-nitrophenyl dihydrogen phosphate in 130.5 μL of the prescribed buffer in a microplate well at 37 °C for 10 min. pNP was formed during the enzymatic process, which was monitored for 30 min. The IC50 values were derived using a non-linear regression analysis of the fraction of the product generated vs. the log of the inhibitory concentration.

The target of another experiment is T3, human DPP-4 enzyme (Homo sapiens, UniProt P27487).
T3 construct: purchased
The experiment in a line: DPP-4 activity bioassay. It counts as biochemical. As to conditions: for inhibition at 31.25 µM / inhibition at 62.5 µM / inhibition at 125 µM / inhibition at 250 µM: read-out: DPP4 (inhibition) (converted); for inhibition at 500 µM: read-out: DPP4 (inhibition); for IC50: read-out: IC50 DPP4. As for the experimental part:
All succinimides and thiazolidinedione hybrids were tested for DPP-4 inhibitory effects on a human DPP-4 enzyme using the methodology published before. The DPP-4 kit was used to measure the inhibition. L-thiazolidine (P32/98) was included as a reference. The hybrids and DPP-4 enzyme were both adulterated 1/50 in the assay buffer (PH = 7.4, 25 mM Tris). Following that, a microplate well was filled with 5 μL of assay buffer, 3 μL of enzyme solution, and 2 μL of adequately diluted test chemical solutions. After a 12-min incubation period at 37.5 °C, a diluted substrate solution of 25 μL was added into the solution. A multi-mode reader was used to assess the fluorescence. […] PRISM5 was used to calculate the IC50 values and compare the inhibition ratio to the control without the inhibitor.

[1] abbreviates: 31.25 µM, read-out: % α-Amylase Inhibition (converted).
Where [2] appears, read: 62.5 µM, read-out: % α-Amylase Inhibition (converted).
Where [3] appears, read: 125 µM, read-out: % α-Amylase Inhibition (converted).
The mark [4] stands for this setting: 250 µM, read-out: % α-Amylase Inhibition (converted).
[5] abbreviates: 500 µM, read-out: % α-Amylase Inhibition.
The mark [6] stands for this setting: read-out: % α-Amylase Inhibition.

Where two headings read alike, the source gives them in different places.

T3 sequence (P27487 whole entry): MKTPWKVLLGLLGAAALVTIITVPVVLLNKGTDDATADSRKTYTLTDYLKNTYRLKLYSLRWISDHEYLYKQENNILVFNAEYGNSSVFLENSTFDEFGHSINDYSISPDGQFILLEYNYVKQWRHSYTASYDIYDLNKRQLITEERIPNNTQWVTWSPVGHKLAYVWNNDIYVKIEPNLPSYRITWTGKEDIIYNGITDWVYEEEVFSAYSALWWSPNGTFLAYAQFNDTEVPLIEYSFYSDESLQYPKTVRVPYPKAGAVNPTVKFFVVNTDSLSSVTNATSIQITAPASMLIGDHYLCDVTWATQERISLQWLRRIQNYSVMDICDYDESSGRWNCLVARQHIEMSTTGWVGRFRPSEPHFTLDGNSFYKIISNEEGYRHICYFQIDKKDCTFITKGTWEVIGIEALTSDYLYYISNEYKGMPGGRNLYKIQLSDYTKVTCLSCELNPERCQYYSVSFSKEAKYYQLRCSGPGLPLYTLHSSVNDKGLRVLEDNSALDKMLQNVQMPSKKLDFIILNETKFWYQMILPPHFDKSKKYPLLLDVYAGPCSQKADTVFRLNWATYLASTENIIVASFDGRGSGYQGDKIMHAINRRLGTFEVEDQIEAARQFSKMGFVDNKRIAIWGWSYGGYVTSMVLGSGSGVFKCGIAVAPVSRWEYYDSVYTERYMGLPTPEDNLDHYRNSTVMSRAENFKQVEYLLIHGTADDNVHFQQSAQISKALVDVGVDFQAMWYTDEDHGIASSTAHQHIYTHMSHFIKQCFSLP

Consider `CC(C)(/C=C1\SC(=O)N(C(=O)CN2CCOCC2)C1=O)[C@@H]1CC(=O)NC1=O` [10a], for which the IC50 – broadly, the concentration that gives 50% inhibition – at α-glucosidase came out at 16.5 µM; on α-amylase, 21.9 µM; at PTP1B, 12 µM; at human DPP-4 enzyme, 5.38 µM. Further, the “% α-Glucosidase Inhibition” value worked out at 54.56 ± 1.73% with α-glucosidase (31.25 µM); 65.44 ± 0.58% in the experiment with α-glucosidase (62.5 µM); 72.93 ± 0.67% in the experiment on α-glucosidase (125 µM); 75.58 ± 0.63% with α-glucosidase (250 µM); 79.49 ± 0.6% with α-glucosidase (500 µM). The inhibition (commonly the change of the read-out against control, counted positive when it falls) at 31.25 µM at α-amylase (setting [1]) is 54.6%; against PTP1B, 62.9%; at human DPP-4 enzyme, 67.5%. Further, the inhibition at 62.5 µM was 57.5% at α-amylase (setting [2]), 69.2% against PTP1B and 72.5% on human DPP-4 enzyme. Moreover, the inhibition at 125 µM at α-amylase (setting [3]) is 72.8%; against PTP1B, 75.1%; on human DPP-4 enzyme it was 77.2%. In addition, the inhibition at 250 µM on α-amylase (setting [4]) was 77.6%; against PTP1B, 82.6%; at human DPP-4 enzyme it was 82.5%. Besides, the figures for the inhibition at 500 µM at α-amylase (setting [5]), against PTP1B and on human DPP-4 enzyme were 82.61 ± 0.77%, 88.61 ± 0.43% and 87.45 ± 0.59%, respectively.

As for `CN1C(=O)C[C@@H](C(C)(C)/C=C2\SC(=O)N(C(=O)CN3CCOCC3)C2=O)C1=O` [10b], the half-inhibitory concentration (IC50) against α-glucosidase amounted to 27.4 µM; on α-amylase, 21.2 µM; at PTP1B, 16.8 µM; at human DPP-4 enzyme, 20.5 µM. Moreover, the “% α-Glucosidase Inhibition” value with α-glucosidase (31.25 µM) came to 51.72 ± 0.66%; with α-glucosidase (62.5 µM), 57.68 ± 0.49%; in the experiment with α-glucosidase (125 µM) it was 70.60 ± 0.46%; in the experiment with α-glucosidase (250 µM), 75.62 ± 0.40%; in the experiment on α-glucosidase (500 µM) it was 79.48 ± 0.74%. Moreover, the inhibition at 31.25 µM at α-amylase (setting [1]) is 48.5%; against PTP1B it was 57.2%; at human DPP-4 enzyme, 54.3%. Also, the inhibition at 62.5 µM was 65.5% on α-amylase (setting [2]), 65.8% on PTP1B and 62.7% at human DPP-4 enzyme. For the same compound, the inhibition at 125 µM on α-amylase (setting [3]) is 70.5%; at PTP1B it was 72.8%; at human DPP-4 enzyme, 69.4%. In addition, the inhibition at 250 µM on α-amylase (setting [4]) is 74.7%; against PTP1B it was 77.1%; at human DPP-4 enzyme, 75.8%. Also, the inhibition at 500 µM amounted to 79.37 ± 0.69% at α-amylase (setting [5]), 85.3 ± 2.87% at PTP1B and 81.3 ± 1.42% at human DPP-4 enzyme.

In the case of `CC(C)(/C=C1\SC(=O)N(C(=O)CN2CCOCC2)C1=O)[C@@H]1CC(=O)N(c2ccccc2)C1=O` [10c], the IC50 amounted to 25.6 µM on α-glucosidase, 28.3 µM at α-amylase, 19 µM against PTP1B and 12.9 µM on human DPP-4 enzyme. Besides, the “% α-Glucosidase Inhibition” value stood at 62.72 ± 1.01% in the experiment with α-glucosidase (31.25 µM); 65.08 ± 0.47% with α-glucosidase (62.5 µM); 71.42 ± 0.43% in the experiment on α-glucosidase (125 µM); 76.58 ± 1.12% with α-glucosidase (250 µM); 81.53 ± 0.71% in the experiment on α-glucosidase (500 µM). For the same compound, the figures for the inhibition at 31.25 µM at α-amylase (setting [1]), against PTP1B and at human DPP-4 enzyme were 62.4%, 53.5% and 57.4%, respectively. Moreover, the figures for the inhibition at 62.5 µM on α-amylase (setting [2]), against PTP1B and at human DPP-4 enzyme were 67.6%, 63.4% and 62.6%, respectively. Also, the inhibition at 125 µM on α-amylase (setting [3]) is 74.3%; against PTP1B, 69.3%; at human DPP-4 enzyme, 67.4%. For the same compound, the results for the inhibition at 250 µM at α-amylase (setting [4]), against PTP1B and on human DPP-4 enzyme were 81.7%, 73.4% and 72.6%, respectively. Further, the inhibition at 500 µM at α-amylase (setting [5]) turned out to be 88.6 ± 1.12%; on PTP1B, 79.4 ± 1.04%; on human DPP-4 enzyme it was 77.4 ± 1.51%.

On to `COc1ccc(N2C(=O)C[C@@H](C(C)(C)/C=C3\SC(=O)N(C(=O)CN4CCOCC4)C3=O)C2=O)cc1` [10e], for which the half-maximal inhibitory concentration (IC50) against α-glucosidase worked out at 13.2 µM; at α-amylase, 9.66 µM; at PTP1B it was 19.5 µM; at human DPP-4 enzyme, 14.7 µM. Besides, the “% α-Glucosidase Inhibition” value in the experiment with α-glucosidase (31.25 µM) came to 52.58 ± 0.63%; with α-glucosidase (62.5 µM), 74.94 ± 1.13%; in the experiment with α-glucosidase (125 µM), 79.84 ± 0.30%; in the experiment on α-glucosidase (250 µM) it was 81.08 ± 0.47%; with α-glucosidase (500 µM) it was 86.44 ± 0.58%. Besides, the inhibition at 31.25 µM at α-amylase (setting [1]) is 73.4%; against PTP1B, 56.4%; at human DPP-4 enzyme it was 61.3%. For the same compound, the values for the inhibition at 62.5 µM on α-amylase (setting [2]), against PTP1B and at human DPP-4 enzyme were 78.2%, 63.5% and 67.3%, respectively. Further, the inhibition at 125 µM at α-amylase (setting [3]) was 82.5%; at PTP1B, 67.2%; on human DPP-4 enzyme it was 74.5%. The inhibition at 250 µM at α-amylase (setting [4]) is 88.6%; against PTP1B, 75.8%; at human DPP-4 enzyme, 82.5%. The results for the inhibition at 500 µM on α-amylase (setting [5]), against PTP1B and at human DPP-4 enzyme were 92.7 ± 1.3%, 83.51 ± 0.54% and 88.5 ± 2.06%, respectively.

Regarding `C[C@H]1O[C@H](O[C@H]2[C@H](O)[C@@H](O)[C@@H](O[C@H]3[C@H](O)[C@@H](O)C(O)O[C@@H]3CO)O[C@@H]2CO)[C@H](O)[C@@H](O)[C@@H]1N[C@H]1C=C(CO)[C@@H](O)[C@H](O)[C@H]1O` (some centres unmarked) [Acarbose, acarbose, reference compound], in the experiment on α-glucosidase (31.25 µM), the “% α-Glucosidase Inhibition” value was found to be 71.22 ± 0.47%. The “% α-Glucosidase Inhibition” value in the experiment with α-glucosidase (62.5 µM) came out at 76.44 ± 0.28%. In addition, the “% α-Glucosidase Inhibition” value in the experiment on α-glucosidase (125 µM) was found to be 80.90 ± 1.11%. Also, the “% α-Glucosidase Inhibition” value in the experiment on α-glucosidase (500 µM) is 94.40 ± 0.03%. Further, on α-amylase (setting [6]), the inhibition at 31.25 µM was 70.8%, the inhibition at 62.5 µM was 75.4%, the inhibition at 125 µM was 80.6% and the inhibition at 250 µM is 86.5%. Besides, the inhibition at 500 µM at α-amylase (setting [6]) is 93.1 ± 1.04%.

As to `C[C@H]1[C@H](C)CC[C@]2(C(=O)O)CC[C@]3(C)C(=CC[C@@H]4[C@@]5(C)CC[C@H](O)C(C)(C)[C@@H]5CC[C@]43C)[C@H]12` [Ursolic acid, ursolic acid, reference compound], on PTP1B, the inhibition at 31.25 µM was 71.8%, the inhibition at 62.5 µM is 76.4%, the inhibition at 125 µM is 81.6% and the inhibition at 250 µM was 87.5%. For the same compound, the inhibition at 500 µM on PTP1B amounted to 94.1 ± 1.04%.
